Measurements published in patent publication US20070191495A1, “Lipase inhibitor” (FUJI OIL COMPANY, LIMITED, priority 2004, published 2007).

Key:
[1] = Digestion and absorption test in mouse; type: in vivo, C57BL/6J mice; settings: for Body fat percentage: PIXImus2; for Body weight: in g (unit assumed)
Description: Using the 2O2 fraction obtained in Preparation Example 1 and mice, a digestion and absorption test was performed for about 2 months. Seven-week-old C57BL/6J mice were pre-reared for 1 week and used for the test. The compounded feed shown in Table 2, which is prepared by partially modifying AIN-93G composition, or soybean oil as a control was fed to the mice for about 2 months. Each group consisted of 6 mice. After reared for about 2 months, a change in the body weight, feed efficiency and body fat percentage were measured. For measuring body fat percentage, an X-ray bone density measuring apparatus for exclusive use in experimental mice, PIXImus2 (GE Medical Systems) was used. As a result of a digestion and adsorption test on mice for 56 days, in a group using the 2O2 fraction, the body weight was reduced by about 10%, the feed efficiency was reduced by 17%, and the body fat percentage was reduced by about 14%.
Using the LUU/UUL fraction obtained in Preparation Example 3 and mice, a digestion and absorption test was performed for about 2 months. Seven-week-old C57BL/6J mice were pre-reared for 1 week and used for the test. The compounded feed shown in Table 5, which is prepared by partially modifying AIN-93G composition, or soybean oil as a control was fed to the mice for about 2 months. Each group consisted of 6 mice. After reared for about 2 months, a change in the body weight, feed efficiency and body fat percentage were measured. For measuring body fat percentage, an X-ray bone density measuring apparatus for exclusive use in experimental mice, PIXImus2 (GE Medical Systems) was used. As a result of a digestion and adsorption test on mice for 56 days, in a group using the […] fraction, the body weight was reduced by about 9%, the feed efficiency was reduced by 12%, and the body fat percentage was reduced by about 13%.
Using the glyceryl ether lipid fraction obtained in Preparation Example 4 and mice, a digestion and absorption test was performed for about 2 months. Seven-week-old C57BL/6J mice were pre-reared for 1 week and used for the test. The compounded feed shown in Table 8, which is prepared by partially modifying AIN-93G composition, or soybean oil as a control was fed to the mice for about 2 months. Each group consisted of 6 mice. After reared for about 2 months, a change in the body weight, feed efficiency and body fat percentage were measured. For measuring body fat percentage, an X-ray bone density measuring apparatus for exclusive use in experimental mice, PIXImus2 (GE Medical Systems) was used. As a result of a digestion and adsorption test on mice for 56 days, in a group using soybean oil/the glyceryl ether lipid fraction, the body weight and the feed efficiency were reduced by bout 10%, and the body fat percentage was reduced by about 12%.

[2] = molecular target: T1, pig pancreatic lipase (Sus scrofa, UniProt P00591); test: lipase activity measurement (free fatty acid released from emulsified fat, OD480); type: biochemical; settings: for Relative activity of test fat to soybean oil: 37° C., 1 hour
T1 construct: purchased Sigma
T1 sequence (P00591 1-450): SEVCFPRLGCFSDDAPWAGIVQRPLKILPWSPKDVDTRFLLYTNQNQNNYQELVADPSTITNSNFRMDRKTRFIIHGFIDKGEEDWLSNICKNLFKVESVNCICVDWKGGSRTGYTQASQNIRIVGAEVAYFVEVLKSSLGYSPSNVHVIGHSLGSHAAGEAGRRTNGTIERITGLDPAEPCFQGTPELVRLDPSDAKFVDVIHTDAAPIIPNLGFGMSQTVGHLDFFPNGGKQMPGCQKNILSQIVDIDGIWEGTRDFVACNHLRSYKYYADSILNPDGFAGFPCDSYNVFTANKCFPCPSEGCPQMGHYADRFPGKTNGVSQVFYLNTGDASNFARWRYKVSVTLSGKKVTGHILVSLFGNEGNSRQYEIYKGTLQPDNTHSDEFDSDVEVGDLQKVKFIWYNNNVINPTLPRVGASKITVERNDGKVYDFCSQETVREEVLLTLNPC
Description: (§1) Soybean oils of which 1 part (2O2 purity: about 0.8%), 5 parts (2O2 purity: about 4.2%), 10 parts (2O2 purity: about 8.3%) and 50 parts (2O2 purity about: 41.5%) were replaced with the 2O2 fraction obtained as described above, and the 2O2 fraction itself (2O2 purity: 83%) were used for the following lipase activity measurement. To 80 mg of each oil, 80 mg of phosphatidylcholine (Sigma), 5 mg of sodium taurocholate (Wako Pure Chemical Industries, Ltd.), and 9 ml of a 0.1 M TES buffer (PH 7) containing 0.1 M NaCl were added and the mixture was emulsified with an ultrasound oscillator for 1 minute to obtain a substrate. To 300 μl of the substrate, 5 μl (5U) of a pig pancreatic lipase (Sigma) was added and then reacted at 37° C. for 1 hour. To the reaction mixture was then added 3 ml of an extraction solvent (a mixture of chloroform/heptane/methanol=49 parts/49 parts/2 parts). The mixture was stirred vigorously and then centrifuged at 2500 rpm for 5 minutes. The upper layer was removed. To the lower layer was added 1 ml of a copper regent (prepared by dissolving 2.98 g of triethanolamine, 2.42 g of copper nitrate and 0.48 g of NaOH in 200 ml of water and then adding 66 g of NaCl). The mixture was stirred for 10 minutes and then centrifuged at 2500 rpm for 10 minutes to take 1.5 ml of the upper layer as a sample. To the sample was added 1.5 ml of a color-producing reagent (prepared by 0.2 g of bathocuproin and 0.1 g of butylhydroxyanisole in 200 ml of chloroform) and an absorbance at OD480 was measured as the quantity of free fatty acid.
as §1, with “(LUU/UUL” for “(2O2”, “0.7%),” for “0.8%),”, “3.5%) and” for “4.2%),”, “7.0%)” for “8.3%) and 50 parts (2O2 purity about: 41.5%)”, “LUU/UUL” for “2O2”, “70%)” for “83%)”
Soybean oils of which 1 part, 5 parts and 10 parts were replaced with the glyceryl ether lipid fraction obtained as described above, and the glyceryl ether lipid fraction itself were used for the following lipase activity measurement. To 80 mg of each oil, 80 mg of phosphatidylcholine (Sigma), 5 mg of sodium taurocholate (Wako Pure Chemical Industries, Ltd.), and 9 ml of a 0.1 M TES buffer (PH 7) containing 0.1 M NaCl were added and the mixture was emulsified with an ultrasound oscillator for 1 minute to obtain a substrate. To 300 μl of the substrate, 5 μl (5U) of a pig pancreatic lipase (Sigma) was added and then reacted at 37° C. for 1 hour. To the reaction mixture was then added 3 ml of an extraction solvent (a mixture of chloroform/heptane/methanol =49 parts/49 parts/2 parts). The mixture was stirred vigorously and then centrifuged at 2500 rpm for 5 minutes. […]

[3] = 56 days, versus soybean oil group
[4] = after rearing for 56 days, feed with 10.0 wt % soybean oil + 0.5 wt % test fraction
[5] = before initiation of rearing, feed with 10.0 wt % soybean oil + 0.5 wt % test fraction
[6] = fat composition soybean oil/test fat 0/100 (part), the fraction itself
[7] = fat composition soybean oil/test fat 50/50 (part)
[8] = fat composition soybean oil/test fat 90/10 (part)
[9] = fat composition soybean oil/test fat 95/5 (part)
[10] = fat composition soybean oil/test fat 99/1 (part)
[11] = soybean oil of which 1 part was replaced with the test fat

Structure (SMILES) | body fat percentage reduced by [1, 3] | body weight reduced by [1, 3] | feed efficiency reduced by [1, 3] [%] | Body fat percentage [1, 4] | Feed efficiency [1, 4] | Body weight [1, 4] | Body fat percentage [1, 5] | Body weight [1, 5] | Relative activity of test fat to soybean oil [2, 6] [%] | Relative activity of test fat to soybean oil [2, 7] [%] | Relative activity of test fat to soybean oil [2, 8] [%] | Relative activity of test fat to soybean oil [2, 9] [%] | Relative activity of test fat to soybean oil [2, 10] [%] | activity inhibited by [2, 11] | activity inhibited by ([2]; soybean oil of which 5 parts were replaced with the test fat) | activity inhibited by ([2]; soybean oil of which 10 parts was replaced with the test fat)
CCCCCCCC/C=C\CCCCCCCC(=O)OC(COC(C)=O)COC(C)=O [2O2] | about 14% | about 10% | 17 | 34.8 ± 2.5 | 0.061 ± 0.002 | 30.7 ± 1.4 | 19.1 ± 0.9 | 22.8 ± 0.3 | 11 | 48 | 67 | 66 | 78 | about 20% | about 35% | 
CCCCCCCC/C=C\CCCCCCCC(=O)OC(COC(=O)CCCCC)COC(=O)CCCCC [6O6] |  |  |  |  |  |  |  |  | 30 | 68 | 74 | 91 | 86 | about 15% |  | about 25%
